Test results reported in patent US11925649B2, “Treatments for diabetic neuropathy” (University of Manitoba, priority 2010, dated 2024).

Legend:
Type in all cases: in vivo, mouse
[1] = tested on: STZ diabetic C57Bl6J mice; experiment: Prophylactic topical hydrogel application in STZ diabetic mice
Method: Male C57Bl6J mice were made diabetic with 2 injections of 90 mg/kg STZ on consecutive days, and then separated into three groups. There were also two groups control (non-diabetic) mice. The first group of control (non-diabetic) mice received daily topical treatment with 50 μl Intrasite® hydrogel (Intrasite is a registered trademark of T. J. Smith and Nephew, Hull, England) to both hind paws, with a controlled exposure time of 20 minutes. […] The third group of mice were diabetic mice that received daily topical treatment with 50 μl hydrogel to both hind paws.
Two months after the second STZ injection, the function of the small sensory neurons in all five groups of mice were determined by measuring hind paw thermal response latency following the procedure described in Example 7.
The structural integrity of small sensory neurons was assessed by measuring IENF profiles in hind paw plantar skin as described in Example 7.
A suitable gel is exemplified by Intrasite® sterile hydrogel prod. no. 66027313 (Smith & Nephew Inc, St. Laurent, PQ, CA).

[2] = tested on: STZ diabetic Swiss Webster mice; experiment: Restorative subcutaneous injections in diabetic mice; settings: 10 mg/kg daily s.c. from week 14
Method: Male out-bred Swiss Webster mice were made diabetic with 2 injections of 90 mg/kg STZ on consecutive days. […] The mice were maintained for 14 weeks after STZ injections. […] At 14 weeks, the diabetic mice were separated into two groups. The first was the untreated group of diabetic mice.
The function of the small sensory neurons in diabetic and non-diabetic groups of mice were assessed at 5 wks, 7 wks, 11 wks, and 14 wks after the STZ injections.

[3] = tested on: STZ-induced diabetic C57Bl6J mice; experiment: Reappearance of neuropathy after withdrawal of treatment
Text: Only 9 weeks later (the 17-wk time point) was there a significant reappearance of hypoalgesia in the previously treated STZ-induced diabetic mice (FIG. 12).

[4] = tested on: AMP-activated protein kinase (AMPK); experiment: AMPK expression in DRG of STZ-diabetic mice (Western blot); settings: daily s.c. injections for 8 weeks, lumbar DRG
Method: Lumbar DRG were isolated and rinsed in ice-cold solution containing STE buffer (250 mmol/l sucrose, 10 mmol/l Tris-HCl, 1 mmol/l EDTA, pH 7.4), and then homogenized with a polytron homogenizer ([…] GmbH, Switzerland) using 3×7.5 s grinding pulses at 30 s intervals according to the method taught by Chowdhury et al. (2010, Diabetes 59: 1082-1091).
Quantitative Western blotting was performed as previously disclosed by Chowdhury et al (2010) and Fernyhough et al. (1999, Diabetes 48: 881-889). DRG homogenates of 5-10 μg of protein were resolved on a 10% SDS-PAGE gel and electroblotted onto nitrocellulose membrane. Blots were then blocked in 5% nonfat milk containing 0.05% Tween-20, rinsed in PBS (pH 7.4) and incubated with the following antibodies: polyclonal anti-phospho AMPK (1:1000, Cell Signaling Technology, Danvers, MA, US), polyclonal anti-PGC-1α (1:1000, Santa Cruz Biotechnology Inc, Santa Cruz, CA, USA) and monoclonal anti-ATP synthase β subunit (1:2000 dilution, Mitosciences, Eugene, OR). Extracellular signal-regulated kinase (ERK; 1:2000, Covance, Princeton, NJ, US) was probed as a loading control (previous studies show this protein to not change level of expression in DRG in diabetes). […]

NDUFS3 = NDUFS3 expression in DRG of STZ-diabetic mice (Western blot); settings: daily injections for 8 weeks
Method: (§1) Quantitative Western blotting was performed as described in Example 15. Quantitative Western blotting was performed as previously disclosed by Chowdhury et al (2010) and Fernyhough et al. (1999). DRG homogenates of 5-10 μg of protein were resolved on a 10% SDS-PAGE gel and electroblotted onto nitrocellulose membrane. Blots were then blocked in 5% nonfat milk containing 0.05% Tween-20, rinsed in PBS (pH 7.4) and incubated with the following antibodies: monoclonal anti-cytochrome c oxidase subunit 4 (COX IV; 1:1000, Mitosciences, Eugene, OR, US), monoclonal anti-NADH dehydrogenase (ubiquinone) iron-sulfur protein 3 (NDUFS3, 1:1000, Mitosciences, Eugene, OR, US). Extracellular signal-regulated kinase (T-ERK; 1:2000, Covance, Princeton, NJ, US) was probed as a loading control. The blots were rinsed, incubated in Western blotting Luminol Reagent (Santa Cruz Biotechnology Inc., Santa Cruz, CA, US) and imaged using a BioRad Fluor-S image analyzer (BioRad, Hercules, CA, US).

COX IV = COX IV expression in DRG of STZ-diabetic mice (Western blot); settings: daily injections for 8 weeks
Method: as §1

[5] = tested on: mitochondrial respiratory complex IV; experiment: Mitochondrial respiratory complex IV activity in DRG of STZ-diabetic mice; settings: daily injections for 8 weeks, lumbar DRG
Method: All measurements of enzymatic activities in lumbar DRG preparations were performed spectrophotometrically using a temperature controlled Ultrospec 2100 UV-visible spectrophotometer (Biopharmacia Biotech, Uppsala, Sweden) using the methods taught by Chowdhury et al. (2010). Complex I activity was measured as rotenone-sensitive NADH: cytochrome c reductase activity. Freshly prepared assay buffer (50 mmol/l K-phosphate pH 7.4, 1 mmol/l KCN, 100 μmol/l NADH) and 10 μg protein of DRG homogenate preparation were added to the cuvette and preincubated for 3 min at 25° C. After addition of 100 μmol/l oxidized cytochrome c, the reaction was followed for 2 minutes at 550 nm and then for 2 more minutes after addition of 25 μmol/l rotenone to allow calculation of the rotenone-sensitive Complex I activity. Complex IV activity was measured at 25° C. by monitoring the absorbance decrease of reduced cytochrome c at 550 nm as disclosed by Chowdhury et al. (2000, Clin. Chim. Acta 298: 157-173). […] Activity of the Krebs cycle enzyme, citrate synthase, was determined at 25° C. in medium containing 150 mmol/l Tris-HCl (pH 8.2), 0.02% laurylmaltoside, 0.1 mmol/l dithionitrobenzoic acid and 5 μg protein according to the method of Chowdhury et al (2007, Free Radic. Res. 41: 1116-1124). The reaction was initiated by addition of 100 μmol/l acetyl CoA and changes in absorbance at 412 nm were measured for 1 minute. […]

[6] = control (non-diabetic) mice, 10% hydrogel, treated hindpaw
[7] = diabetic mice, 2% or 10% hydrogel, vs control mice

CN1CCN(CC(=O)N2c3ccccc3C(=O)Nc3cccnc32)CC1 [pirenzepine, 11-[2-(4-methylpiperazin-1-yl)acetyl]-5H-pyrido[2,3-b][1,4]benzodiazepin-6-1]
IENF per mm of skin [1, 6]: numerically, but statistically insignificant, increases | SNP per mm of skin [1, 6]: numerically, but statistically insignificant, increases | thermal response latency ([1]; control (non-diabetic) mice, daily topical hydrogel comprising 10% pirenzepine): not affected | levels of IENF in treated paw [1, 7]: no significant changes | levels of SNP in treated paw [1, 7]: no significant changes | thermal response latency in treated paw ([1]; diabetic mice, daily topical 2% or 10% hydrogel, vs control mice): did not demonstrate any significant changes | thermal latency ([2]; 21st week, 7 weeks of treatment): identical to the non-diabetic controls | IENF profiles ([2]; at 21 weeks): restored the IENF profiles to approximate those of the non-diabetic control mice | thermal latency ([2]; within 4 weeks of treatment (18 weeks)): significantly reduced thermal latency | thermal hypoalgesia ([3]; 10 mg/kg daily s.c., after 8 weeks): hypoalgesia was prevented | time after stopping treatment to significant reappearance of hypoalgesia ([3]; treatment stopped at 8 weeks, 17-wk time point): 9 weeks | expression of P-AMPK [4]: restored the expression | expression of T-AMPK [4]: restored the expression | expression of NDUFS3 mitochondrial protein (NDUFS3): restored the expression | expression of COX IV mitochondrial protein (COX IV): restored the expression | activity of mitochondrial respiratory complex IV [5]: restored the deficits
